Measured values as given in paper PMC10289903 (Investigational New Drugs, 2023).
Read-outs that look alike come from different tables or passages of the source.

System: patients with locally advanced or metastatic solid tumors
Description: This was a Phase Ib, multicenter, open-label, dose-finding clinical trial (NCT02610075). […] Three types of treatment schedules were investigated: cohorts bid 1, bid 2, qd 1.1, qd 2.1 and qd 3.1 received bid or qd treatment on a 5/9 schedule (5 days on treatment, followed by 9 days off) on a 14-day cycle. Cohorts qd 1.2, qd 2.2, and qd 3.2 received treatment on a 5/2 schedule (5 days on followed by 2 days off for 2 of 3 weeks) in a 21-day cycle. Cohorts qd 2.3 and qd 3.3 received treatment on a weekly 5/2 schedule in a 21-day cycle (Table 1). The highest dose level(s) at which less than one-third of evaluable patients (none of 3 patients or 1 of 6 patients) experienced a dose-limiting toxicity (DLT) was declared the MTD.
The per protocol analysis set was defined as a subset of the full analysis set, excluding subjects having an important protocol deviation, to be used for analyses of efficacy endpoints if appropriate.

[1] = qd 3.3: 300 mg 5/2 weekly (n=2)

C=CCn1c(=O)c2cnc(Nc3ccc(N4CCN(C)CC4)cc3)nc2n1-c1cccc(C(C)(C)O)n1 [adavosertib, Adavosertib]
1 (25.0) n (%): Dehydration (treatment-emergent AE) (qd 3.1: 300 mg qd 5/9 (n=4)) | Fatigue (treatment-related AE) (qd 3.1: 300 mg qd 5/9 (n=4)) | Insomnia (treatment-emergent AE) (qd 3.1: 300 mg qd 5/9 (n=4)) | Muscle spasms (treatment-emergent AE) (qd 3.1: 300 mg qd 5/9 (n=4)) | Myalgia (treatment-emergent AE) (qd 3.1: 300 mg qd 5/9 (n=4)) | Myalgia (treatment-related AE) (qd 3.1: 300 mg qd 5/9 (n=4)) | Thrombocytopenia (treatment-emergent AE) (qd 3.1: 300 mg qd 5/9 (n=4)) | Thrombocytopenia (treatment-related AE) (qd 3.1: 300 mg qd 5/9 (n=4))
6 (37.5) n (%): Anemia (treatment-related AE) (qd 3.2: 300 mg qd 5/2 (n=16))
2 (100) n (%): Nausea (treatment-related AE) [1]
0 n (%): Dehydration (treatment-related AE) (qd 3.1: 300 mg qd 5/9 (n=4)) | Diarrhea (treatment-emergent AE) (qd 3.1: 300 mg qd 5/9 (n=4)) | Diarrhea (treatment-related AE) (qd 3.1: 300 mg qd 5/9 (n=4)) | Dyspepsia (treatment-emergent AE) (qd 3.1: 300 mg qd 5/9 (n=4)) | Dyspepsia (treatment-related AE) (qd 3.1: 300 mg qd 5/9 (n=4)) | Fall (treatment-emergent AE) (qd 3.1: 300 mg qd 5/9 (n=4)) | Headache (treatment-emergent AE) (qd 3.1: 300 mg qd 5/9 (n=4)) | Hypokalemia (treatment-emergent AE) (qd 3.1: 300 mg qd 5/9 (n=4)) | Neutropenia (treatment-emergent AE) (qd 3.1: 300 mg qd 5/9 (n=4)) | Neutropenia (treatment-related AE) (qd 3.1: 300 mg qd 5/9 (n=4)) | Pneumonia (treatment-emergent AE) (qd 3.1: 300 mg qd 5/9 (n=4)) | Pyrexia (treatment-emergent AE) (qd 3.1: 300 mg qd 5/9 (n=4)) | Rash (treatment-emergent AE) (qd 3.1: 300 mg qd 5/9 (n=4)) | Urinary tract infection (treatment-emergent AE) (qd 3.1: 300 mg qd 5/9 (n=4)) | Vomiting (treatment-emergent AE) (qd 3.1: 300 mg qd 5/9 (n=4)) | Vomiting (treatment-related AE) (qd 3.1: 300 mg qd 5/9 (n=4)) | Alanine aminotransferase increased (treatment-emergent AE) (qd 3.2: 300 mg qd 5/2 (n=16)) | Constipation (treatment-related AE) (qd 3.2: 300 mg qd 5/2 (n=16)) | Insomnia (treatment-emergent AE) (qd 3.2: 300 mg qd 5/2 (n=16)) | Alanine aminotransferase increased (treatment-emergent AE) [1] | Anemia (treatment-emergent AE) [1] | Anemia (treatment-related AE) [1] | Asthenia (treatment-emergent AE) [1] | Asthenia (treatment-related AE) [1] | Back pain (treatment-emergent AE) [1] | Constipation (treatment-emergent AE) [1] | Constipation (treatment-related AE) [1] | Cough (treatment-emergent AE) [1] | Decreased appetite (treatment-emergent AE) [1] | Decreased appetite (treatment-related AE) [1] | Dehydration (treatment-emergent AE) [1] | Dehydration (treatment-related AE) [1] | Dyspepsia (treatment-emergent AE) [1] | Dyspepsia (treatment-related AE) [1] | Dyspnea (treatment-emergent AE) [1] | Edema peripheral (treatment-emergent AE) [1] | Fall (treatment-emergent AE) [1] | Fatigue (treatment-emergent AE) [1] | Fatigue (treatment-related AE) [1] | Headache (treatment-emergent AE) [1] | Insomnia (treatment-emergent AE) [1] | Muscle spasms (treatment-emergent AE) [1] | Myalgia (treatment-related AE) [1]
1 (6.3) n (%): Dehydration (treatment-related AE) (qd 3.2: 300 mg qd 5/2 (n=16)) | Headache (treatment-emergent AE) (qd 3.2: 300 mg qd 5/2 (n=16)) | Muscle spasms (treatment-emergent AE) (qd 3.2: 300 mg qd 5/2 (n=16)) | Myalgia (treatment-related AE) (qd 3.2: 300 mg qd 5/2 (n=16))
3 (18.8) n (%): Dyspnea (treatment-emergent AE) (qd 3.2: 300 mg qd 5/2 (n=16)) | Fall (treatment-emergent AE) (qd 3.2: 300 mg qd 5/2 (n=16)) | Myalgia (treatment-emergent AE) (qd 3.2: 300 mg qd 5/2 (n=16)) | Pyrexia (treatment-emergent AE) (qd 3.2: 300 mg qd 5/2 (n=16)) | Thrombocytopenia (treatment-emergent AE) (qd 3.2: 300 mg qd 5/2 (n=16)) | Thrombocytopenia (treatment-related AE) (qd 3.2: 300 mg qd 5/2 (n=16)) | Urinary tract infection (treatment-emergent AE) (qd 3.2: 300 mg qd 5/2 (n=16))
8 (50.0) n (%): Anemia (treatment-emergent AE) (qd 3.2: 300 mg qd 5/2 (n=16)) | Any treatment-related grade ≥ 3 AE (qd 3.2: 300 mg qd 5/2 (n=16)) | Fatigue (treatment-related AE) (qd 3.2: 300 mg qd 5/2 (n=16))
2 (12.5) n (%): Abdominal pain (treatment-related AE) (qd 3.2: 300 mg qd 5/2 (n=16)) | Asthenia (treatment-related AE) (qd 3.2: 300 mg qd 5/2 (n=16)) | Cough (treatment-emergent AE) (qd 3.2: 300 mg qd 5/2 (n=16)) | Dyspepsia (treatment-emergent AE) (qd 3.2: 300 mg qd 5/2 (n=16)) | Dyspepsia (treatment-related AE) (qd 3.2: 300 mg qd 5/2 (n=16)) | Rash (treatment-emergent AE) (qd 3.2: 300 mg qd 5/2 (n=16))
16 (100.0) n (%): Any AE (treatment-emergent) (qd 3.2: 300 mg qd 5/2 (n=16)) | Any treatment-related AE (qd 3.2: 300 mg qd 5/2 (n=16))
5 (31.3) n (%): Decreased appetite (treatment-emergent AE) (qd 3.2: 300 mg qd 5/2 (n=16)) | Vomiting (treatment-emergent AE) (qd 3.2: 300 mg qd 5/2 (n=16))
7 (43.8) n (%): Dehydration (treatment-emergent AE) (qd 3.2: 300 mg qd 5/2 (n=16)) | Nausea (treatment-related AE) (qd 3.2: 300 mg qd 5/2 (n=16))
2 (50.0) n (%): Dizziness (treatment-emergent AE) (qd 3.1: 300 mg qd 5/9 (n=4)) | Dyspnea (treatment-emergent AE) (qd 3.1: 300 mg qd 5/9 (n=4)) | Edema peripheral (treatment-emergent AE) (qd 3.1: 300 mg qd 5/9 (n=4)) | Fatigue (treatment-emergent AE) (qd 3.1: 300 mg qd 5/9 (n=4)) | Nausea (treatment-emergent AE) (qd 3.1: 300 mg qd 5/9 (n=4)) | Nausea (treatment-related AE) (qd 3.1: 300 mg qd 5/9 (n=4))
4 (25.0) n (%): Abdominal pain (treatment-emergent AE) (qd 3.2: 300 mg qd 5/2 (n=16)) | Asthenia (treatment-emergent AE) (qd 3.2: 300 mg qd 5/2 (n=16)) | Back pain (treatment-emergent AE) (qd 3.2: 300 mg qd 5/2 (n=16)) | Constipation (treatment-emergent AE) (qd 3.2: 300 mg qd 5/2 (n=16)) | Decreased appetite (treatment-related AE) (qd 3.2: 300 mg qd 5/2 (n=16)) | Dizziness (treatment-emergent AE) (qd 3.2: 300 mg qd 5/2 (n=16)) | Edema peripheral (treatment-emergent AE) (qd 3.2: 300 mg qd 5/2 (n=16)) | Hypokalemia (treatment-emergent AE) (qd 3.2: 300 mg qd 5/2 (n=16)) | Neutropenia (treatment-emergent AE) (qd 3.2: 300 mg qd 5/2 (n=16)) | Neutropenia (treatment-related AE) (qd 3.2: 300 mg qd 5/2 (n=16)) | Pneumonia (treatment-emergent AE) (qd 3.2: 300 mg qd 5/2 (n=16)) | Vomiting (treatment-related AE) (qd 3.2: 300 mg qd 5/2 (n=16))
9 (56.3) n (%): Diarrhea (treatment-emergent AE) (qd 3.2: 300 mg qd 5/2 (n=16)) | Diarrhea (treatment-related AE) (qd 3.2: 300 mg qd 5/2 (n=16)) | Fatigue (treatment-emergent AE) (qd 3.2: 300 mg qd 5/2 (n=16)) | Nausea (treatment-emergent AE) (qd 3.2: 300 mg qd 5/2 (n=16))
1 (50.0) n (%): Abdominal pain (treatment-emergent AE) [1] | Abdominal pain (treatment-related AE) [1] | Any grade ≥ 3 AE [1] | Any treatment-related grade ≥ 3 AE [1] | Dizziness (treatment-emergent AE) [1] | Hypokalemia (treatment-emergent AE) [1] | Myalgia (treatment-emergent AE) [1] | Neutropenia (treatment-emergent AE) [1] | Neutropenia (treatment-related AE) [1]
12 (75.0) n (%): Any grade ≥ 3 AE (qd 3.2: 300 mg qd 5/2 (n=16))
2 (100.0) n (%): Any AE (treatment-emergent) [1] | Any treatment-related AE [1] | Diarrhea (treatment-emergent AE) [1] | Diarrhea (treatment-related AE) [1] | Nausea (treatment-emergent AE) [1]
